Reference: EP0908457B1, “3-(1,2-benzisothiazol- and isoxazol-5-Y1)-2,4(1H,3H)-pyrimidinedione or thione and 3-(1,2-benzisothiazol- and isoxazol-5-y1)-4(3H)-pyrimidinone or thione herbicidal agents” (BASF AKTIENGESELLSCHAFT, priority 1997, dated 1999)

Legend:
[1] = system: Monochoria vaginalis, Presl.; assay: Preemergence weed control under flooded paddy conditions, MOOVA (Monochoria); format: in vivo; conditions: preemergence weeds, flooded paddy, rated three to four weeks after treatment
[2] = system: Echinochloa oryzoides (Ard.) Fritsch.; assay: Preemergence weed control under flooded paddy conditions, ECHORC (Watergrass (Calif.)); format: in vivo; conditions: preemergence weeds, flooded paddy, rated three to four weeks after treatment
Sagittaria pygmaea, L. = assay: Preemergence weed control under flooded paddy conditions, SAGPY (Arrowhead (Pygmaea)); format: in vivo; conditions: preemergence weeds, flooded paddy, rated three to four weeks after treatment
[3] = system: Oryza sativa, (L.) Tebonnet; assay: Rice tolerance to post-transplant applications under flooded paddy conditions (Example 187), ORYSAT (Rice, Tebonnet); conditions: rated three to four weeks after treatment
[4] = system: Cyperus serotinus, Rottb.; assay: Preemergence weed control under flooded paddy conditions, CYPSE (Flatsedge); format: in vivo; conditions: preemergence weeds, rated three to four weeks after treatment
Cyperus iria = assay: Preemergence weed control under flooded paddy conditions, CYPIR (Rice Flatsedge); format: in vivo; conditions: preemergence weeds, flooded paddy, rated three to four weeks after treatment
Also: meaning of each grade not given here.

Row | SMILES | herbicidal effect rating, MOOVA ([1]; Rate 0.0320 kg/ha) | herbicidal effect rating, MOOVA ([1]; Rate 0.0620 kg/ha) | herbicidal effect rating, MOOVA ([1]; Rate 0.1250 kg/ha) | herbicidal effect rating, MOOVA ([1]; Rate 0.2500 kg/ha) | herbicidal effect rating, ECHORC ([2]; Rate 0.0320 kg/ha) | herbicidal effect rating, ECHORC ([2]; Rate 0.0620 kg/ha) | herbicidal effect rating, ECHORC ([2]; Rate 0.1250 kg/ha) | herbicidal effect rating, ECHORC ([2]; Rate 0.2500 kg/ha) | herbicidal effect rating, SAGPY (Sagittaria pygmaea, L.; Rate 0.0320 kg/ha) | herbicidal effect rating, SAGPY (Sagittaria pygmaea, L.; Rate 0.0620 kg/ha) | herbicidal effect rating, SAGPY (Sagittaria pygmaea, L.; Rate 0.1250 kg/ha) | herbicidal effect rating, SAGPY (Sagittaria pygmaea, L.; Rate 0.2500 kg/ha) | herbicidal effect rating ORYSAT ([3]; Rate 0.0320 kg/ha) | herbicidal effect rating ORYSAT ([3]; Rate 0.0620 kg/ha) | herbicidal effect rating ORYSAT ([3]; Rate 0.1250 kg/ha) | herbicidal effect rating ORYSAT ([3]; Rate 0.2500 kg/ha) | herbicidal effect rating, CYPSE ([4]; Rate 0.0320 kg/ha) | herbicidal effect rating, CYPSE ([4]; Rate 0.0620 kg/ha) | herbicidal effect rating, CYPSE ([4]; Rate 0.1250 kg/ha) | herbicidal effect rating, CYPSE ([4]; Rate 0.2500 kg/ha) | other results
1 | CN(C)C(=O)c1nsc2ccc(-n3c(=O)cc(C(F)(F)F)n(C)c3=O)cc12 [Example 329, 1,2-Benzisothiazole-3-carboxamide, 5-[3,6-dihydro-3-methyl-2,6-dioxo-4-(trifluoromethyl)-1(2H)-pyrimidinyl]-N,N-dimethyl-] | 9.0 | 9.0 | 9.0 | 9.0 | 2.0 | 3.0 | 3.0 | 3.0 | 3.0 | 4.0 | 4.0 | 4.0 | 3.0 | 3.0 | 3.0 | 3.0 | 0.0 | 0.0 | 0.0 | 0.0 | herbicidal effect rating, CYPIR (Cyperus iria; Rate 0.0320 kg/ha): 0.0; herbicidal effect rating, CYPIR (Cyperus iria; Rate 0.0620 kg/ha): 0.0; herbicidal effect rating, CYPIR (Cyperus iria; Rate 0.1250 kg/ha): 0.0; herbicidal effect rating, CYPIR (Cyperus iria; Rate 0.2500 kg/ha): 0.0
2 | CC(C)NC(=O)c1nsc2ccc(-n3c(=O)cc(C(F)(F)F)n(C)c3=O)cc12 [Example 330, 1,2-Benzisothiazole-3-carboxamide, 5-[3,6-dihydro-3-methyl-2,6-dioxo-4-(trifluoromethyl)-1(2H)-pyrimidinyl]-N-isopropyl-] | 9.0 | 9.0 | 9.0 | 9.0 | 7.0 | 7.0 | 9.0 | 9.0 | 0.0 | 0.0 | 0.0 | 0.0 | 7.0 | 7.0 | 7.0 | 7.0 | 5.0 | 5.0 | 5.0 | 5.0 | herbicidal effect rating, CYPIR (Cyperus iria; Rate 0.0320 kg/ha): 0.0; herbicidal effect rating, CYPIR (Cyperus iria; Rate 0.0620 kg/ha): 0.0; herbicidal effect rating, CYPIR (Cyperus iria; Rate 0.1250 kg/ha): 6.0; herbicidal effect rating, CYPIR (Cyperus iria; Rate 0.2500 kg/ha): 6.0
3 | Cn1c(C(F)(F)F)cc(=O)n(-c2ccc3snc(C(=O)Nc4cc(C(C)(C)C)on4)c3c2)c1=O [Example 331, 1,2-Benzisothiazole-3-carboxamide, N-(5-tert-butylisoxazol-3-yl)-5-[3,6-dihydro-3-methyl-2,6-dioxo-4-(trifluoromethyl)-1(2H)-pyrimidinyl]-] | 9.0 | 9.0 | 9.0 | 9.0 | 0.0 | 2.0 | 4.0 | 8.0 | 0.0 | 0.0 | 0.0 | 0.0 | 0.0 | 0.0 | 0.0 | 1.0 | 0.0 | 0.0 | 0.0 | 0.0 | herbicidal effect rating, CYPIR (Cyperus iria; Rate 0.0320 kg/ha): 0.0; herbicidal effect rating, CYPIR (Cyperus iria; Rate 0.0620 kg/ha): 0.0; herbicidal effect rating, CYPIR (Cyperus iria; Rate 0.1250 kg/ha): 5.0; herbicidal effect rating, CYPIR (Cyperus iria; Rate 0.2500 kg/ha): 9.0
